{"source": "paper PMC11842588", "about": "“A first-in-class selective inhibitor of ERK1/2 and ERK5 overcomes drug resistance with a single-molecule strategy” (Signal Transduction and Targeted Therapy, 2025)", "key": {"BT549 cells": {"tested_on": "BT549 cells", "test": "MTT cell viability assay", "type": "cell-based", "details": "Homo sapiens, BT-549, 72 h", "method": "(§1) MDA-MB-468 and MDA-MB-436 cells were cultured in Leibovitz’s L-15 medium supplemented with 10% fetal bovine serum. […] All of the cells were cultured at 37 °C in a humidified atmosphere containing 5% CO2.\n(§2) Cancer cells were seeded in a density in 96-well plates (2 × 10^3 cells per well). After incubation for 24 h, cancer cells were treated with compounds (0–20 μM) for 72 h."}, "MDA-MB-231 cells": {"tested_on": "MDA-MB-231 cells", "test": "MTT cell viability assay", "type": "cell-based", "method": "as §1, §2"}, "MDA-MB-436 cells": {"tested_on": "MDA-MB-436 cells", "test": "MTT cell viability assay", "type": "cell-based", "details": "Homo sapiens, 72 h", "method": "as §1, §2"}, "MDA-MB-468 cells": {"tested_on": "MDA-MB-468 cells", "test": "MTT cell viability assay", "type": "cell-based", "method": "as §1, §2"}, "MDA-MB-231 xenograft": {"tested_on": "MDA-MB-231 xenograft", "test": "MDA-MB-231 xenograft tumor growth inhibition", "type": "in vivo, nude mice (BALB/c-nu)", "details": "50 mg/kg (each drug), intragastric once daily, 16 days, by tumor weight", "method": "(§3) All procedures were performed in accordance with the Laboratory Animals Welfare Act, the Guide for the Care and Use of Laboratory Animals and the Guidelines and Policies. The rodent experiment was approved by IACUC (Institutional Animal Care and Use Committee) in the Experimental Animal Ethics Committee of West China Hospital (Approval No. 2021672A). 48 female nude mice (BALB/c-nu, 5 weeks, 15–18 g, purchased from Beijing HFK Bio-Technology Co., LTD) were acclimatized for one week in an SPF-grade animal facility (ventilated, 20–25 °C, 50–60% humidity). […] When the tumor volume reached approximately 100 mm^3 (V = L × W^2/2), the mice were randomly divided into six groups (n = 8 per group): (1) Control group (normal saline); (2) 25 mg/kg SKLB-D18-treated group; (3) 50 mg/kg SKLB-D18-treated group; (4) 50 mg/kg BVD-523-treated group; (5) 50 mg/kg XMD8-92-treated group; (6) BVD-523 (50 mg/kg) and XMD8-92 (50 mg/kg) combined treatment group. Drugs were freshly prepared with 5% DMSO, 10% Solutol HS-15, and 85% normal saline on the day of administration. Intragastric administration occurred once daily at the same time for 16 consecutive days. And the body weight and tumor volume of mice were measured every three days. After the administration period, all nude mice were euthanized by cervical dislocation the next day. Tumors and vital organs (heart, liver, spleen, lung, kidney) were dissected, and tumors were weighed, then immediately fixed in 4% paraformaldehyde or stored in −80 °C."}, "380 kinases": {"tested_on": "380 kinases", "test": "Kinase profiling, whole panel", "type": "biochemical, human", "details": "1 µM, panel of 380 kinases", "method": "(§4) 380 kinases inhibitory activities of SKLB-D18 were conducted by Eurofins Cerep SA. The result was illustrated by kinase tree (http://www.kinhub.org/kinmap/)."}, "ERK1/2 and ERK5": {"tested_on": "ERK1/2 and ERK5", "test": "Cellular thermal shift assay (CETSA)", "type": "cell-based", "details": "2 μM, MDA-MB-231 and MDA-MB-468 cells, 37–62 °C", "method": "Cells were collected by trypsin and then resuspended in PBS. Following heating at the indicated temperatures (37, 42, 47, 52, 57, and 62 °C) for 3 min, cell suspensions were lysed by three freeze−thaw cycles with liquid nitrogen and thawed at room temperature. The lysates were separated by centrifugation at 17,000 × g for 20 min. The supernatants were collected and prepared for Immunoblotting to detect the stability of ERK1/2 and ERK5."}, "Ki-67": {"tested_on": "Ki-67", "test": "IHC of Ki-67 in xenograft tumor tissue", "type": "in vivo, nude mice (BALB/c-nu)", "details": "50 mg/kg", "method": "as §3, with “Intragastric administration occurred once daily at the same time for 16 consecutive days.” left out, “After the administration period, all nude mice were euthanized by cervical dislocation the next day. Tumors and vital organs (heart, liver, spleen, lung, kidney) were dissected, and tumors were weighed, then immediately fixed in 4% paraformaldehyde or stored in −80 °C.” left out\nBriefly, tumor tissues were dehydrated, embedded, and sectioned. […] Microscopic analysis and imaging were performed, analyzed with ImageJ, and statistical graphs were created using GraphPad Prism 9.5. […]"}, "BIKe(h)": {"target": "T1, BIKe(h) (Homo sapiens, UniProt Q9NSY1)", "T1 construct": "purchased Eurofins Cerep SA (KinaseProfiler)", "T1 sequence (Q9NSY1 whole entry)": "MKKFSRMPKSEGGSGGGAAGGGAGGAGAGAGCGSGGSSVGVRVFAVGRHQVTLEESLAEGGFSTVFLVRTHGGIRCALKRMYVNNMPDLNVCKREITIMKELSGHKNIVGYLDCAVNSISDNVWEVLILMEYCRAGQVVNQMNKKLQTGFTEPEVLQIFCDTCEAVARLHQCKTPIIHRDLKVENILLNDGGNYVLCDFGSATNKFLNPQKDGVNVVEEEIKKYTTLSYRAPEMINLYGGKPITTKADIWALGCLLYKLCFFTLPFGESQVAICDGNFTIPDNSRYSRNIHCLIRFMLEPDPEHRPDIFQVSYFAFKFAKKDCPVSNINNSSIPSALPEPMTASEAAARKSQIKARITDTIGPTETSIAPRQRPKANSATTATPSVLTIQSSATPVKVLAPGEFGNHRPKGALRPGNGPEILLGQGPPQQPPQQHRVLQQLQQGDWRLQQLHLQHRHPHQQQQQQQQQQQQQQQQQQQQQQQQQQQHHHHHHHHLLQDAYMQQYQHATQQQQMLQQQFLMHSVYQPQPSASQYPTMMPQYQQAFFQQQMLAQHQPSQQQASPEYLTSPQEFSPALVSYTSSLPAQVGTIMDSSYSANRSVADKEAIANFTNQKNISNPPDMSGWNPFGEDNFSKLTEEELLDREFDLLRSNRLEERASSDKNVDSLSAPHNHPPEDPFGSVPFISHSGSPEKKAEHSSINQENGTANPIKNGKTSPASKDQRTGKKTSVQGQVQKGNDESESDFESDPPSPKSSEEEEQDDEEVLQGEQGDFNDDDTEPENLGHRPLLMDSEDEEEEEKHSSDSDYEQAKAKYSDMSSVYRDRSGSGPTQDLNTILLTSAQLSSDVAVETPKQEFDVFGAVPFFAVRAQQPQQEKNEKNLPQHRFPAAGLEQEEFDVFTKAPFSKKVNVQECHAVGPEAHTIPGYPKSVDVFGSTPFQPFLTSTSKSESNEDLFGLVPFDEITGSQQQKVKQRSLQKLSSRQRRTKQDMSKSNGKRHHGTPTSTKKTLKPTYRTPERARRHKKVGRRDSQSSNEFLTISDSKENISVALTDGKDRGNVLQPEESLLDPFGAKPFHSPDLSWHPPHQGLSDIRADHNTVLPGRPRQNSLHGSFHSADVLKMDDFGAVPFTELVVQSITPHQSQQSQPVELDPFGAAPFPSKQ", "test": "Kinase profiling", "type": "biochemical", "method": "as §4"}, "CK1γ2(h)": {"target": "T2, CK1γ2(h) (Homo sapiens, UniProt P78368)", "T2 construct": "purchased Eurofins Cerep SA (KinaseProfiler)", "test": "Kinase profiling", "type": "biochemical", "method": "as §4"}, "DRAK1(h)": {"target": "T3, DRAK1(h) (Homo sapiens, UniProt Q9UEE5)", "T3 construct": "purchased Eurofins Cerep SA (KinaseProfiler)", "test": "Kinase profiling", "type": "biochemical", "method": "as §4"}, "HIPK3(h)": {"target": "T4, HIPK3(h) (Homo sapiens, UniProt Q9H422)", "T4 construct": "purchased Eurofins Cerep SA (KinaseProfiler)", "test": "Kinase profiling", "type": "biochemical", "method": "as §4"}, "MINK(h)": {"target": "T5, MINK(h) (Homo sapiens, UniProt Q8N4C8)", "T5 construct": "purchased Eurofins Cerep SA (KinaseProfiler)", "T5 sequence (Q8N4C8 whole entry)": "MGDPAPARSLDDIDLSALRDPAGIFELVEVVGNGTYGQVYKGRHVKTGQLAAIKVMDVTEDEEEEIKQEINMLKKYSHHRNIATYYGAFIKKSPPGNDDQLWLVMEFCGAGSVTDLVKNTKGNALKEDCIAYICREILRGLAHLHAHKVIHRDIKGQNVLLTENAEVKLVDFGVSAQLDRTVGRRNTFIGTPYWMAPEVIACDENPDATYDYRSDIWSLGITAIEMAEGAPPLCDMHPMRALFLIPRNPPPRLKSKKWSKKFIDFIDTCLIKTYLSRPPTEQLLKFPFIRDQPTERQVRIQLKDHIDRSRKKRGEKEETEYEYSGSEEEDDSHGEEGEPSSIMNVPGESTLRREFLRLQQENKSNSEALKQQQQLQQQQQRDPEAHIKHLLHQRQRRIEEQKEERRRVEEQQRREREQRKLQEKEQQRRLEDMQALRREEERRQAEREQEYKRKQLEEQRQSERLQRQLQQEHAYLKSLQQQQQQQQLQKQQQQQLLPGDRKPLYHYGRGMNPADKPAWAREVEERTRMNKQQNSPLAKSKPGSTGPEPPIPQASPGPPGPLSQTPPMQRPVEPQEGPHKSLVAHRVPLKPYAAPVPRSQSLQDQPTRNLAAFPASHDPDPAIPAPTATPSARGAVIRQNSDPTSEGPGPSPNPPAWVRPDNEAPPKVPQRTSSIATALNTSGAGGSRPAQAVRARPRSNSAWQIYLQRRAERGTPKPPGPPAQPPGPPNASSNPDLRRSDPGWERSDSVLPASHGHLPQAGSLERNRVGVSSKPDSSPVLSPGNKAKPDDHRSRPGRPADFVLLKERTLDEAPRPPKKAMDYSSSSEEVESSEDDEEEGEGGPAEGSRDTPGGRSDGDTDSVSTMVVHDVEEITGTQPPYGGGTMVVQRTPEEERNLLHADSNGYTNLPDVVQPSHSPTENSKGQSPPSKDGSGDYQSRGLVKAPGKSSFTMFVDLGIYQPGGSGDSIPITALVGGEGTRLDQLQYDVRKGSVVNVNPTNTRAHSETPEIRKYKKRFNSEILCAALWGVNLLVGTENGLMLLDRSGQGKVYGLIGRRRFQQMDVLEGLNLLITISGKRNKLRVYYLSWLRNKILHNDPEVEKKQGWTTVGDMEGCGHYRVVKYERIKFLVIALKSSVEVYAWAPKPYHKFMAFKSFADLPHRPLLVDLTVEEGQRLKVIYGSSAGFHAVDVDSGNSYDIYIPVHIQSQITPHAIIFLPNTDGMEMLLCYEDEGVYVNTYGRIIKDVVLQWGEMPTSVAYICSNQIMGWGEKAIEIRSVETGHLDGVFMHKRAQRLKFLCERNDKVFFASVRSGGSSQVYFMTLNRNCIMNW", "test": "Kinase profiling", "type": "biochemical", "method": "as §4"}, "NDR1(h)": {"target": "T6, NDR1(h) (Homo sapiens, UniProt Q15208)", "T6 construct": "purchased Eurofins Cerep SA (KinaseProfiler)", "test": "Kinase profiling", "type": "biochemical", "method": "as §4"}, "PI3KC2g(h)": {"target": "T7, PI3KC2g(h) (Homo sapiens, UniProt O75747)", "T7 construct": "purchased Eurofins Cerep SA (KinaseProfiler)", "T7 sequence (O75747 whole entry)": "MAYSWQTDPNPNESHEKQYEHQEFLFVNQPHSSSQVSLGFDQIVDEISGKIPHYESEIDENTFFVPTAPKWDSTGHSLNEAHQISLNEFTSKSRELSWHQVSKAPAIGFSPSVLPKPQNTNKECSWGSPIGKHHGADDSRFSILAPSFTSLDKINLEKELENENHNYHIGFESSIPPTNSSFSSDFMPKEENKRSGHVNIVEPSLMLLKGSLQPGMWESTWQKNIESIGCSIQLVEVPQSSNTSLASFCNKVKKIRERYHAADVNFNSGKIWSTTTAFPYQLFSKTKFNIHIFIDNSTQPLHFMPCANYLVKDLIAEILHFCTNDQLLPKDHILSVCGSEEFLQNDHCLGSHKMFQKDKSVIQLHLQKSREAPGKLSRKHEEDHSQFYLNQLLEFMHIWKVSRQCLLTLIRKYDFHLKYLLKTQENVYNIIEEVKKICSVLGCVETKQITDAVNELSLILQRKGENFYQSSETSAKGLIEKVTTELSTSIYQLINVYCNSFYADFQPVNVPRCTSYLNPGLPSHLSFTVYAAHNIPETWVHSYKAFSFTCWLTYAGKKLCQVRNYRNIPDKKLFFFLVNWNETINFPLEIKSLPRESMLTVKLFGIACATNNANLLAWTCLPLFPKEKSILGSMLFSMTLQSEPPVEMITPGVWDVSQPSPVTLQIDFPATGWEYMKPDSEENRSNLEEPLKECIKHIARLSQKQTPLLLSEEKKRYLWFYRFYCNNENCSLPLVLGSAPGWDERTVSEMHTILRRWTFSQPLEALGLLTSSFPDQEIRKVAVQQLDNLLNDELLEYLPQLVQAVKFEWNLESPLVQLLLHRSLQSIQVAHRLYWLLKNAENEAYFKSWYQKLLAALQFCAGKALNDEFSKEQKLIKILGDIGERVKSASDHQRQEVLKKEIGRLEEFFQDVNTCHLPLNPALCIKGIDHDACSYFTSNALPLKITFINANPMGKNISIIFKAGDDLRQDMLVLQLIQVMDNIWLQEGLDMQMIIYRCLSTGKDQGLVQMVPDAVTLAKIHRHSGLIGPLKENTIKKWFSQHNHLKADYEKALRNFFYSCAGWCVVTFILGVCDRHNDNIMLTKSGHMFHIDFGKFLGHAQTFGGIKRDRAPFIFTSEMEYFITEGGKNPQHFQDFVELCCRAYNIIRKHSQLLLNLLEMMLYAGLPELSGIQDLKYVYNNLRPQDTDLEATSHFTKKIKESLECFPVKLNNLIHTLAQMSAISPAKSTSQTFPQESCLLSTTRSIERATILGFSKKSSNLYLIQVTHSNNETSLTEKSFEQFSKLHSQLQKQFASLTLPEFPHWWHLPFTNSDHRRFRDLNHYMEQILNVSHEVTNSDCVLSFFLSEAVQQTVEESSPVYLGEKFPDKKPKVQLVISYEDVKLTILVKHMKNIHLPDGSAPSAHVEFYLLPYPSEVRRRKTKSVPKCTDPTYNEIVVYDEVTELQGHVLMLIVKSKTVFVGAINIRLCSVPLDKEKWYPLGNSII", "test": "Kinase profiling", "type": "biochemical", "method": "as §4"}, "SAPK4(h)": {"target": "T8, SAPK4(h) (Homo sapiens, UniProt O15264)", "T8 construct": "purchased Eurofins Cerep SA (KinaseProfiler)", "T8 sequence (O15264 whole entry)": "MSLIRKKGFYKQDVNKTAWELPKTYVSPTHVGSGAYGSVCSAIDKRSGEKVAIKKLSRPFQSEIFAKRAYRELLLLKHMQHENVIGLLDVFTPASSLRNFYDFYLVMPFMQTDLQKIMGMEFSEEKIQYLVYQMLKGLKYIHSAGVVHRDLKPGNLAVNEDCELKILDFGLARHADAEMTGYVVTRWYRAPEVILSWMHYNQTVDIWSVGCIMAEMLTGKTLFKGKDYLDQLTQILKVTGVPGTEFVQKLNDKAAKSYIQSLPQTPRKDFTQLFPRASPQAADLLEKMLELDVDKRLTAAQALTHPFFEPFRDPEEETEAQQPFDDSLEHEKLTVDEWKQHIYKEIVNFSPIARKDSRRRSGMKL", "test": "Kinase profiling", "type": "biochemical", "method": "as §4"}, "SGK2(h)": {"target": "T9, SGK2(h) (Homo sapiens, UniProt Q9HBY8)", "T9 construct": "purchased Eurofins Cerep SA (KinaseProfiler)", "test": "Kinase profiling", "type": "biochemical", "method": "as §4"}, "Yes(h)": {"target": "T10, Yes(h) (Homo sapiens, UniProt P07947)", "T10 construct": "purchased Eurofins Cerep SA (KinaseProfiler)", "T10 sequence (P07947 whole entry)": "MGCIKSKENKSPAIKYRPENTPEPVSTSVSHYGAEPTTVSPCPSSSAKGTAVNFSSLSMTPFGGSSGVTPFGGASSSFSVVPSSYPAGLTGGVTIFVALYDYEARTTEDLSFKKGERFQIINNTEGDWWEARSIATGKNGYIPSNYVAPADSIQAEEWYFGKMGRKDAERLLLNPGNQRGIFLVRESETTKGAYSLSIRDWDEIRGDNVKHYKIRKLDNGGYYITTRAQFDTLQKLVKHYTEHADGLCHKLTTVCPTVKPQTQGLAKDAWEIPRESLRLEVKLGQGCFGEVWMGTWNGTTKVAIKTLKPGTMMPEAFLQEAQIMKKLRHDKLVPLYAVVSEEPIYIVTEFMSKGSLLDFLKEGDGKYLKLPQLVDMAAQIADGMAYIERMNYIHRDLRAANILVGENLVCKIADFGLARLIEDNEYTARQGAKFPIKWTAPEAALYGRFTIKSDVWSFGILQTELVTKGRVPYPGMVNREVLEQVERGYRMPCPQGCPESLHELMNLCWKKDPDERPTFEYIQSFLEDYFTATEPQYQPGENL", "test": "Kinase profiling", "type": "biochemical", "method": "as §4"}}, "data": [{"smiles": "CN(C)Cc1cccc(Nc2ncc(Cl)c(-c3csc(C(=O)NN4CCOCC4)c3)n2)c1", "note": "[SKLB-D18, 4-(5-chloro-2-((3-((dimethylamino)methyl)phenyl)amino)pyrimidin-4-yl)-N-morpholinothiophene-2-carboxamide]", "values": [{"measurement": "IC50", "setting": "BT549 cells", "result": "3210 ± 340", "unit": "nM"}, {"measurement": "Anti-proliferative activity (10 μM, %) MDA-MB-231", "setting": "MDA-MB-231 cells; 10 μM", "result": "93.44 ± 1.21", "unit": "%"}, {"measurement": "IC50", "setting": "MDA-MB-231 cells; Homo sapiens, MDA-MB-231, read-out: IC50 MDA-MB-231, MTT, 72 h", "result": "930 ± 110", "unit": "nM"}, {"measurement": "IC50", "setting": "MDA-MB-436 cells", "result": "2310 ± 290", "unit": "nM"}, {"measurement": "Anti-proliferative activity (10 μM, %) MDA-MB-468", "setting": "MDA-MB-468 cells; 10 μM", "result": "92.18 ± 0.93", "unit": "%"}, {"measurement": "IC50", "setting": "MDA-MB-468 cells; Homo sapiens, MDA-MB-468, MTT, 72 h", "result": "1050 ± 130", "unit": "nM"}, {"measurement": "tumor inhibition rate", "setting": "MDA-MB-231 xenograft", "result": 79.88, "unit": "%"}, {"measurement": "number of protein kinases outside of ERK1/2/5 inhibited by >70%", "setting": "380 kinases", "result": 8}, {"measurement": "thermal shift of ERK5 and ERK1/2 proteins (CETSA)", "setting": "ERK1/2 and ERK5", "result": "increasing thermal shift"}, {"measurement": "Ki-67 positive area", "setting": "Ki-67", "result": "less than 20%"}, {"measurement": "inhibition at 1 µM", "setting": "BIKe(h)", "result": 52, "unit": "%"}, {"measurement": "inhibition at 1 µM", "setting": "CK1γ2(h)", "result": 18, "unit": "%"}, {"measurement": "inhibition at 1 µM", "setting": "DRAK1(h)", "result": 44, "unit": "%"}, {"measurement": "inhibition at 1 µM", "setting": "HIPK3(h)", "result": 64, "unit": "%"}, {"measurement": "inhibition at 1 µM", "setting": "MINK(h)", "result": 22, "unit": "%"}, {"measurement": "inhibition at 1 µM", "setting": "NDR1(h)", "result": 66, "unit": "%"}, {"measurement": "inhibition at 1 µM", "setting": "PI3KC2g(h)", "result": -7, "unit": "%"}, {"measurement": "inhibition at 1 µM", "setting": "SAPK4(h)", "result": 53, "unit": "%"}, {"measurement": "inhibition at 1 µM", "setting": "SGK2(h)", "result": 11, "unit": "%"}, {"measurement": "inhibition at 1 µM", "setting": "Yes(h)", "result": 65, "unit": "%"}]}]}
